In assay [1] the test system is H. pylori. In words: Antimicrobial activity test 6: oxethazaine in combination with an antibiotic (AMPC, CAM, RXM), checker board method. As to conditions: combined use with oxethazaine; out of 15 strains (AMPC), 21 strains (CAM), 22 strains (RXM). It counts as cell-based, Helicobacter pylori. An excerpt:
The effect of combined use with amoxicillin (AMPC), clarithromycin (CAM) or roxithromycin (RXM) was examined in the same manner as in antimicrobial activity test 1, using the checker board method.

The subject of assay [2] is H. pylori. In words: Antimicrobial activity test 1: anti-H. pylori activity of a single compound (agar plate method). As to conditions: Helicobacter pylori, read-out: MIC (growth inhibition). It counts as cell-based, Helicobacter pylori.
Assay [3] relates to H. pylori. In words: Antimicrobial activity test 3: oxethazaine in combination with compound (II), checker board method. Conditions: Helicobacter pylori. The format is cell-based. From the text: In each Table, the concentration of oxethazaine is shown vertically, and the concentration of compound (II) is shown horizontally. In each Table, “−” indicates the inhibited growth of H. pylori (presence of antimicrobial activity), and “+” indicates the growth of H. pylori (absence of antimicrobial activity). […] It is assumed to be present when the MIC of either oxethazaine or PPI is reduced by ½ (when anti-H. pylori activity is not recognized when the concentrations of both oxethazaine and PPI are reduced to ¼, but anti-H. pylori activity is recognized when the concentration of one compound is reduced to ¼ and simultaneously the concentration of the other compound is reduced to ½.).

Another assay has as its system Gram-positive bacteria. In words: Antimicrobial activity (MIC) of oxethazaine and structure analogues against Gram-positive bacteria. The format is cell-based.
The test system of assay [4] is H. pylori. As to conditions: PPI alone, 30 mg/day, 8 weeks; cited from earlier work.
In assay [5] the test system is H. pylori. In words: Antimicrobial activity test 2: time for sterilizing H. pylori (viable cell count in Brucella broth). It counts as cell-based, Helicobacter pylori. As to conditions: NCTC 11637. As to the method:
A solution of the test compound was added to Brucella broth containing 5% fetal bovine serum, cultured under slightly aerobic conditions at 37° C., and the vial microbe cell number in Brucella agar containing 7% horse blood was counted at predetermined intervals. The above compound (1) was dissolved in a 1% aqueous solution of […] (DMSO), and the above compound (2) was dissolved in water to prepare a solution of each test compound. “cfu” in Tables and Figures means “colony forming unit”.

[6] abbreviates: strain 90-397 (first line, r19).
Where [7] appears, read: strain 90-397 (second line, r25).

In brackets after ≈: the same amount, converted by molar mass.

Usually MIC stands for the smallest concentration in the dilution series that meets the test's criterion for growth inhibition.

Take `CC1(C)S[C@@H]2[C@H](NC(=O)[C@H](N)c3ccc(O)cc3)C(=O)N2[C@H]1C(=O)O` [Amoxicillin, amoxicillin]: in the assay with H. pylori [1], the “additive effect, number of strains” value amounted to 10 strains/ and the “synergism, number of strains” value is given as 0 strains/.

On to `COCCCOc1ccnc(CSc2nc3ccccc3[nH]2)c1C` [Compound (II), 2-[4-(3-methoxypropoxy)-3-methylpyridine-2-yl]methylthio-1H-benzimidazole], for which the minimum inhibitory concentration (MIC) in the assay with H. pylori [2] (NCTC11637, strain NCTC11637) worked out at 1.56 µg/mL (≈ 4.54 µM); in the assay with H. pylori [2] (NCTC11639, strain NCTC11639) it was 0.8 µg/mL (≈ 2.33 µM); in the assay with H. pylori [2] (NCTC11916, strain NCTC11916), 1.56 µg/mL (≈ 4.54 µM); with H. pylori [2] (strain 89-355), 1.56 µg/mL (≈ 4.54 µM); in the assay on H. pylori [2] (strain 89-357), 0.8 µg/mL (≈ 2.33 µM); in the assay on H. pylori [2] (strain 89-360 (1)), 1.56 µg/mL (≈ 4.54 µM). Further, the minimum inhibitory concentration (MIC) stood at 1.56 µg/mL (≈ 4.54 µM) with H. pylori [2] (strain 89-360); 1.56 µg/mL (≈ 4.54 µM) with H. pylori [2] (strain 90-384); 0.8 µg/mL (≈ 2.33 µM) in the assay on H. pylori [2] (strain 90-388 (1)); 1.56 µg/mL (≈ 4.54 µM) in the assay on H. pylori [2] (strain 90-388); 0.8 µg/mL (≈ 2.33 µM) in the assay with H. pylori [2] (strain 90-390 (1)); 0.8 µg/mL (≈ 2.33 µM) with H. pylori [2] (strain 90-390). Besides, the minimal inhibitory concentration (MIC) came to 0.8 µg/mL (≈ 2.33 µM) in the assay on H. pylori [2] (strain 90-392); 1.56 µg/mL (≈ 4.54 µM) in the assay with H. pylori [2] (setting [6]); 0.8 µg/mL (≈ 2.33 µM) with H. pylori [2] (setting [7]); 0.8 µg/mL (≈ 2.33 µM) in the assay on H. pylori [2] (strain 90-407 (1)); 1.56 µg/mL (≈ 4.54 µM) with H. pylori [2] (strain 90-407); 0.8 µg/mL (≈ 2.33 µM) with H. pylori [2] (strain 90-411). The MIC in the assay on H. pylori [2] (strain 90-414 (1)) was determined as 0.8 µg/mL (≈ 2.33 µM); with H. pylori [2] (strain 90-414), 0.8 µg/mL (≈ 2.33 µM); with H. pylori [2] (strain 90-428) it was 1.56 µg/mL (≈ 4.54 µM); with H. pylori [2] (strain EH12), 0.8 µg/mL (≈ 2.33 µM); in the assay on H. pylori [2] (strain EH13), 0.8 µg/mL (≈ 2.33 µM); with H. pylori [2] (strain EH16), 0.8 µg/mL (≈ 2.33 µM). For the same compound, the minimal inhibitory concentration (MIC) worked out at 1.56 µg/mL (≈ 4.54 µM) with H. pylori [2] (strain EH26); 1.56 µg/mL with H. pylori [3] (NCTC11637, NCTC 11637); 0.8 µg/mL with H. pylori [3] (NCTC11639, NCTC 11639).

Regarding `CCOC(=O)c1ccc(NC(=O)CN2CCCCC2)cc1` [(B)], the “antimicrobial activity (MIC)” value in the assay with Gram-positive bacteria (E. faecalis RIMD 3116001), in the assay on Gram-positive bacteria (S. aureus FDA 209-P) and in the assay on Gram-positive bacteria (S. epidermidis ATCC 12228) was >100 µg/mL throughout.

Consider `Cc1c(OCC(F)(F)F)ccnc1C[S+]([O-])c1nc2ccccc2[nH]1` (stereo not drawn) [Compound (IV), lansoprazole], for which the “degree of efficacy for H. pylori therapy” value with H. pylori [4] is on record as 5%. The MIC in the assay on H. pylori [2] (NCTC11637, strain NCTC11637) turned out to be 12.5 µg/mL (≈ 33.8 µM); in the assay with H. pylori [2] (NCTC11639, strain NCTC11639), 3.13 µg/mL (≈ 8.47 µM); in the assay with H. pylori [2] (NCTC11916, strain NCTC11916), 6.25 µg/mL (≈ 16.9 µM); with H. pylori [2] (strain 89-355), 3.13 µg/mL (≈ 8.47 µM); with H. pylori [2] (strain 89-357) it was 6.25 µg/mL (≈ 16.9 µM); in the assay on H. pylori [2] (strain 89-360 (1)), 6.25 µg/mL (≈ 16.9 µM). In addition, the MIC is 6.25 µg/mL (≈ 16.9 µM) in the assay on H. pylori [2] (strain 89-360); 3.13 µg/mL (≈ 8.47 µM) in the assay on H. pylori [2] (strain 90-384); 6.25 µg/mL (≈ 16.9 µM) in the assay with H. pylori [2] (strain 90-388 (1)); 3.13 µg/mL (≈ 8.47 µM) with H. pylori [2] (strain 90-388); 6.25 µg/mL (≈ 16.9 µM) in the assay with H. pylori [2] (strain 90-390 (1)); 3.13 µg/mL (≈ 8.47 µM) in the assay on H. pylori [2] (strain 90-390). Also, the MIC in the assay with H. pylori [2] (strain 90-392) worked out at 6.25 µg/mL (≈ 16.9 µM); in the assay on H. pylori [2] (setting [6]), 3.13 µg/mL (≈ 8.47 µM); in the assay with H. pylori [2] (setting [7]) it was 6.25 µg/mL (≈ 16.9 µM); in the assay with H. pylori [2] (strain 90-407 (1)) it was 6.25 µg/mL (≈ 16.9 µM); in the assay on H. pylori [2] (strain 90-407) it was 3.13 µg/mL (≈ 8.47 µM); in the assay with H. pylori [2] (strain 90-411), 3.13 µg/mL (≈ 8.47 µM). Besides, the MIC in the assay on H. pylori [2] (strain 90-414 (1)) worked out at 6.25 µg/mL (≈ 16.9 µM); in the assay on H. pylori [2] (strain 90-414), 6.25 µg/mL (≈ 16.9 µM); with H. pylori [2] (strain 90-428), 6.25 µg/mL (≈ 16.9 µM); with H. pylori [2] (strain EH12), 3.13 µg/mL (≈ 8.47 µM); in the assay with H. pylori [2] (strain EH13), 3.13 µg/mL (≈ 8.47 µM); in the assay on H. pylori [2] (strain EH16) it was 3.13 µg/mL (≈ 8.47 µM). For the same compound, in the assay on H. pylori [2] (strain EH26), the MIC amounted to 6.25 µg/mL (≈ 16.9 µM).

Consider `CCN(CC)CCOC(=O)c1ccc(N)cc1.Cl` [(C)], for which the “antimicrobial activity (MIC)” value with Gram-positive bacteria (E. faecalis RIMD 3116001), with Gram-positive bacteria (S. aureus FDA 209-P) and with Gram-positive bacteria (S. epidermidis ATCC 12228) was >100 µg/mL each time.

On to `CCOC(=O)c1ccc(N)cc1` [(A)], for which the “antimicrobial activity (MIC)” value with Gram-positive bacteria (E. faecalis RIMD 3116001), with Gram-positive bacteria (S. aureus FDA 209-P) and in the assay on Gram-positive bacteria (S. epidermidis ATCC 12228) was >100 µg/mL in each case.

Regarding `COc1ccc2[nH]c([S+]([O-])Cc3ncc(C)c(OC)c3C)nc2c1` (stereo not drawn) [Compound (III), omeprazole], the MIC in the assay with H. pylori [2] (NCTC11637, strain NCTC11637) is 50 µg/mL (≈ 145 µM); with H. pylori [2] (NCTC11639, strain NCTC11639), 25 µg/mL (≈ 72.4 µM); in the assay with H. pylori [2] (NCTC11916, strain NCTC11916), 50 µg/mL (≈ 145 µM); with H. pylori [2] (strain 89-355) it was 25 µg/mL (≈ 72.4 µM); in the assay with H. pylori [2] (strain 89-357), 50 µg/mL (≈ 145 µM); in the assay with H. pylori [2] (strain 89-360), 50 µg/mL (≈ 145 µM). For the same compound, the minimum inhibitory concentration (MIC) amounted to 50 µg/mL (≈ 145 µM) in the assay on H. pylori [2] (strain 90-384); 25 µg/mL (≈ 72.4 µM) in the assay on H. pylori [2] (strain 90-388 (1)); 50 µg/mL (≈ 145 µM) with H. pylori [2] (strain 90-388); 25 µg/mL (≈ 72.4 µM) in the assay on H. pylori [2] (strain 90-390 (1)); 50 µg/mL (≈ 145 µM) in the assay on H. pylori [2] (strain 90-390); 25 µg/mL (≈ 72.4 µM) in the assay on H. pylori [2] (strain 90-392). Further, the MIC with H. pylori [2] (setting [6]) was 25 µg/mL (≈ 72.4 µM); in the assay on H. pylori [2] (setting [7]), 25 µg/mL (≈ 72.4 µM); in the assay with H. pylori [2] (strain 90-407) it was 25 µg/mL (≈ 72.4 µM); in the assay with H. pylori [2] (strain 90-411), 25 µg/mL (≈ 72.4 µM); in the assay with H. pylori [2] (strain 90-414 (1)) it was 25 µg/mL (≈ 72.4 µM); in the assay on H. pylori [2] (strain 90-414), 50 µg/mL (≈ 145 µM). Moreover, the minimum inhibitory concentration (MIC) with H. pylori [2] (strain 90-428) stood at 50 µg/mL (≈ 145 µM); in the assay on H. pylori [2] (strain EH12), 25 µg/mL (≈ 72.4 µM); in the assay on H. pylori [2] (strain EH13), 25 µg/mL (≈ 72.4 µM); in the assay with H. pylori [2] (strain EH16), 25 µg/mL (≈ 72.4 µM); in the assay on H. pylori [2] (strain EH26) it was 25 µg/mL (≈ 72.4 µM).

`CC1(C)S[C@@H]2[C@H](NC(=O)[C@H](N)c3ccccc3)C(=O)N2[C@H]1C(=O)O` [ampicillin]: the “Viable microbe cell number” value was 6.25 log10cfu/ml in the assay on H. pylori [5] (1 MIC, 0 h); 5.51 log10cfu/ml in the assay on H. pylori [5] (1 MIC, 3 h); 4.49 log10cfu/ml in the assay on H. pylori [5] (1 MIC, 6 h); 3.48 log10cfu/ml in the assay on H. pylori [5] (1 MIC, 24 h); 6.25 log10cfu/ml in the assay on H. pylori [5] (2 MIC, 0 h); 5.30 log10cfu/ml with H. pylori [5] (2 MIC, 3 h). For the same compound, the “Viable microbe cell number” value in the assay on H. pylori [5] (2 MIC, 6 h) turned out to be 4.41 log10cfu/ml; in the assay on H. pylori [5] (2 MIC, 24 h), 3.00 log10cfu/ml; in the assay on H. pylori [5] (4 MIC, 0 h), 6.25 log10cfu/ml; with H. pylori [5] (4 MIC, 3 h) it was 4.95 log10cfu/ml; with H. pylori [5] (4 MIC, 6 h), 4.20 log10cfu/ml; in the assay with H. pylori [5] (4 MIC, 24 h) it was 2.48 log10cfu/ml.

Values taken from patent US6426369B1, “Oxethazaine as antimicrobial agent” (Eisai Co., Ltd., priority 1997, dated 2002).
